Laboratory results from US20220049015A1, “COMPOSITIONS AND METHODS FOR THE TREATMENT AND/OR PREVENTION OF HER2+ CANCERS” (DUKE UNIVERSITY, priority 2018, published 2022).

Test system: MM3MG-HER2Δ16 cells
Assay: In vitro ADCP and ADCC by bone marrow derived macrophages (BMDM)
Format: cell-based, mouse
Conditions: Concanamycin A 1 μM in BMDM co-culture
Description: MM3MG-HER2Δ16 cells were labeled with Brilliant Violet 450 Dye, and co-cultured with BMDM (3:1 ratio) with control or anti-HER2 antibodies (10 μg/mL). ADCP rates were measured by percentage of BMDM uptake of labeled tumor cells (CD45+and BV450+), and Antibody-dependent-cellular-cytotoxicity (ADCC) rates were measured by percentage of dying free tumor cells (CD45− and LIVE/DEAD stain+). […] All data represent mean ±SEM, **P<0.01, ***P<0.001, ****P<0.0001.
ADCP and ADCC by macrophages—Bone marrow derived macrophages (BMDM) were generated from mouse tibia, differentiated for 10 days with 50 ng/mL mouse MCSF (Peprotech 315-02). Briefly, 50 million bone marrow cells were plated in 10 cm^2 tissue culture dish with MCSF on day 0. Unattached cells in supernatant were removed and fresh media+MC SF were added on day 3, day 6 and day 9. BMDM were used for ADCP/ADCC assays on day 10. Tumor cells MM3MG-HER2416 were labeled with Brilliant Violet 450 Dye (BD 562158) according to manufacturer's protocol, and incubated with control or anti-HER2 antibodies (10 μg/mL) in 96-wells (100,000 cells/well) for 30 minutes at 37° C. BMDM were then added for co-culture at a 3:1 ratio of Tumor vs BMDM. After 2 hours co-culture, phagocytosis of BV450-labeled tumor cells by BMDM were analyzed by FACS with CD45-APC staining and Live-death (Red) staining. […]

C/C=C/[C@H]1O[C@@](O)([C@@H](C)[C@H](O)[C@H](C)[C@H]2OC(=O)/C(OC)=C/C(C)=C/[C@@H](C)[C@@H](O)[C@@H](CC)[C@@H](O)[C@H](C)C/C(C)=C/C=C/[C@@H]2OC)C[C@@H](O[C@H]2C[C@@H](O)[C@H](OC(N)=O)[C@@H](C)O2)[C@@H]1C [Concanamycin A]
effect of ADCC inhibitor on HER2 mAb activities: had no effect on HER2 mAb activities
